Test results from patent US11208412B2 (DAEGU-GYEONGBUK MEDICAL INNOVATION FOUNDATION, priority 2017, dated 2021).

Experiments:
Assay in all cases: Kinase selectivity, DiscoverX scanMAX Kinase assay panel (% control)
Format in all cases: binding
[1] = molecular target: T1, kinases of the scanMAX Kinase assay panel (Homo sapiens, UniProt O75116); details: kinase ROCK2; 1 uM in DMSO
T1 construct: purchased DiscoverX Co. (contract measurement) scanMAX Kinase assay panel
In short: (§1)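 A 1 uM DMSO solution of compound was applied across the panel kinases, and results were expressed as % control relative to DMSO (100%) and a positive control (0%).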

[2] = molecular target: T2, kinases of the scanMAX Kinase assay panel (Homo sapiens, UniProt P00533, T790M); details: EGFR(T790M); 1 uM
T2 construct: purchased DiscoverX Co. (contract measurement) scanMAX Kinase assay panel
T2 sequence (P00533 25-1210 T790M): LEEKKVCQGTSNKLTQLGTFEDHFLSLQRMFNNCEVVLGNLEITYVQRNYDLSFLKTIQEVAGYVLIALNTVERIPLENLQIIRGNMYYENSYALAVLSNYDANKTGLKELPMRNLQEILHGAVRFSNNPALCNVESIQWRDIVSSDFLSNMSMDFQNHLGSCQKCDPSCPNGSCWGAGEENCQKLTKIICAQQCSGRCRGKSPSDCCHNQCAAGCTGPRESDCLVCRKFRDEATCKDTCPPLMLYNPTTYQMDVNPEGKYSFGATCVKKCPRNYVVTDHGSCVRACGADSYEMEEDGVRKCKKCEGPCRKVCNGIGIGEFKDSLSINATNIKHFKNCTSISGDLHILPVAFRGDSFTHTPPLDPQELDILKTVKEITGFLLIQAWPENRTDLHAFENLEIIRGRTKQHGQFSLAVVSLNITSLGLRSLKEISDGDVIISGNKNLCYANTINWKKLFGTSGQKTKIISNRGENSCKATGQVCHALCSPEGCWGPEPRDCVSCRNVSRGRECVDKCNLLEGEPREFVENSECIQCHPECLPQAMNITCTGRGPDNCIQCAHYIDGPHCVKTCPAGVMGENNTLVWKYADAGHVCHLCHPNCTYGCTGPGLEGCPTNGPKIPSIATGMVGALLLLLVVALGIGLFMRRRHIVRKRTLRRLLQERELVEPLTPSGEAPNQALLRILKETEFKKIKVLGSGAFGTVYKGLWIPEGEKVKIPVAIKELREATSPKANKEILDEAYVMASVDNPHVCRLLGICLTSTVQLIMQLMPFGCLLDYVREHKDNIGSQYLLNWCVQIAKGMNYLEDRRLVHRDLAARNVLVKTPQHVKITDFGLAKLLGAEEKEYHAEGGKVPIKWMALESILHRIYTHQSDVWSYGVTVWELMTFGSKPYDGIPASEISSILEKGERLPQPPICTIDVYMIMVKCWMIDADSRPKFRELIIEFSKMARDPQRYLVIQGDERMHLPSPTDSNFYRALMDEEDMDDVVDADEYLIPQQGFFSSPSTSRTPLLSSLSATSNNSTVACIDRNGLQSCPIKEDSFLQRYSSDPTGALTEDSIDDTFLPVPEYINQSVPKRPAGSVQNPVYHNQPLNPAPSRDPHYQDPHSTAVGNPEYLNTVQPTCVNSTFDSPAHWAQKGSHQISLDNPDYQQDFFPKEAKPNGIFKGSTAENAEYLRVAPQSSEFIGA
In short: as §1

[3] = molecular target: T3, kinases of the scanMAX Kinase assay panel (Homo sapiens, UniProt P51817); details: PRKX; 1 uM
T3 construct: purchased DiscoverX Co. (contract measurement) scanMAX Kinase assay panel
T3 sequence (P51817 1-358): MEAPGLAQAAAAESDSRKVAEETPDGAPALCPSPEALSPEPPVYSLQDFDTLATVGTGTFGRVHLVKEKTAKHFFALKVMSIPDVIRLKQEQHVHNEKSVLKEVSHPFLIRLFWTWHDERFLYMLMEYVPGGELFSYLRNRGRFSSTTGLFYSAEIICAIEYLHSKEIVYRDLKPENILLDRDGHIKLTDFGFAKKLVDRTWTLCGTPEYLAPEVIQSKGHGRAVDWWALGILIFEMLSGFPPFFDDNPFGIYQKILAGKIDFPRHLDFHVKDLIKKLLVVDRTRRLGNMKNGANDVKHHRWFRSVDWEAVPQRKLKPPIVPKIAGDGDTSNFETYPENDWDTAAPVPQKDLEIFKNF
In short: as §1

[4] = molecular target: T4, kinases of the scanMAX Kinase assay panel (Homo sapiens, UniProt Q13976); details: PRKG1; 1 uM
T4 construct: purchased DiscoverX Co. (contract measurement) scanMAX Kinase assay panel
T4 sequence (Q13976 1-671): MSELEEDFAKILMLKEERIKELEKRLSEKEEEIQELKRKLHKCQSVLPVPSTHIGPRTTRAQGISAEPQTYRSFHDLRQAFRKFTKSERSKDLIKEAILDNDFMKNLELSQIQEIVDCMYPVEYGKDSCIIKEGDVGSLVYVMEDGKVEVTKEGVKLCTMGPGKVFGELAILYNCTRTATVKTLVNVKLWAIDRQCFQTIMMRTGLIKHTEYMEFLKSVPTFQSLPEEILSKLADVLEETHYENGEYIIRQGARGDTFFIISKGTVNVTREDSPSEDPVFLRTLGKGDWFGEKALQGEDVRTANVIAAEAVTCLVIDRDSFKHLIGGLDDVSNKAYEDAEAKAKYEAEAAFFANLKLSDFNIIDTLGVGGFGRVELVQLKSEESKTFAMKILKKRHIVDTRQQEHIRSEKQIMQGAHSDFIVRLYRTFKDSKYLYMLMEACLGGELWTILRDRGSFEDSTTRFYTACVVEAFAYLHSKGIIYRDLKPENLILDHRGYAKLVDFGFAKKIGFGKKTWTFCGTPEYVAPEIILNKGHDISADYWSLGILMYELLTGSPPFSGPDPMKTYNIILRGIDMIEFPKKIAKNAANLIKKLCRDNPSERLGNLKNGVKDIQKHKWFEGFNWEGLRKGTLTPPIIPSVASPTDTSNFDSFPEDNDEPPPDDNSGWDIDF
In short: as §1

[5] = molecular target: T5, kinases of the scanMAX Kinase assay panel (Homo sapiens, UniProt Q16816); details: PHKG1; 1 uM
T5 construct: purchased DiscoverX Co. (contract measurement) scanMAX Kinase assay panel
T5 sequence (Q16816 whole entry): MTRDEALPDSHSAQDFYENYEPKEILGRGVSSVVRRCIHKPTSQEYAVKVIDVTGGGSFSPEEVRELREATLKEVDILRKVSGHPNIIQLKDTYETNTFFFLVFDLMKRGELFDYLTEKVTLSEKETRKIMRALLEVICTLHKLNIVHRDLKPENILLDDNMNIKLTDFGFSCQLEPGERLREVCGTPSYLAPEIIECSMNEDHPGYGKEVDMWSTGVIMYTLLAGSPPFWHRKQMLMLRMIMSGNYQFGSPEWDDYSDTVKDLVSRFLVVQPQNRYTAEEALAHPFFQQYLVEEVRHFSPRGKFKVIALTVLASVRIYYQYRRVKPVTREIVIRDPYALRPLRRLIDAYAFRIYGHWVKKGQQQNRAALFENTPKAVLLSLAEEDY
In short: as §1

[6] = molecular target: T6, kinases of the scanMAX Kinase assay panel (Homo sapiens, UniProt Q9NRM7); details: LATS2; 1 uM
T6 construct: purchased DiscoverX Co. (contract measurement) scanMAX Kinase assay panel
T6 sequence (Q9NRM7 1-1088): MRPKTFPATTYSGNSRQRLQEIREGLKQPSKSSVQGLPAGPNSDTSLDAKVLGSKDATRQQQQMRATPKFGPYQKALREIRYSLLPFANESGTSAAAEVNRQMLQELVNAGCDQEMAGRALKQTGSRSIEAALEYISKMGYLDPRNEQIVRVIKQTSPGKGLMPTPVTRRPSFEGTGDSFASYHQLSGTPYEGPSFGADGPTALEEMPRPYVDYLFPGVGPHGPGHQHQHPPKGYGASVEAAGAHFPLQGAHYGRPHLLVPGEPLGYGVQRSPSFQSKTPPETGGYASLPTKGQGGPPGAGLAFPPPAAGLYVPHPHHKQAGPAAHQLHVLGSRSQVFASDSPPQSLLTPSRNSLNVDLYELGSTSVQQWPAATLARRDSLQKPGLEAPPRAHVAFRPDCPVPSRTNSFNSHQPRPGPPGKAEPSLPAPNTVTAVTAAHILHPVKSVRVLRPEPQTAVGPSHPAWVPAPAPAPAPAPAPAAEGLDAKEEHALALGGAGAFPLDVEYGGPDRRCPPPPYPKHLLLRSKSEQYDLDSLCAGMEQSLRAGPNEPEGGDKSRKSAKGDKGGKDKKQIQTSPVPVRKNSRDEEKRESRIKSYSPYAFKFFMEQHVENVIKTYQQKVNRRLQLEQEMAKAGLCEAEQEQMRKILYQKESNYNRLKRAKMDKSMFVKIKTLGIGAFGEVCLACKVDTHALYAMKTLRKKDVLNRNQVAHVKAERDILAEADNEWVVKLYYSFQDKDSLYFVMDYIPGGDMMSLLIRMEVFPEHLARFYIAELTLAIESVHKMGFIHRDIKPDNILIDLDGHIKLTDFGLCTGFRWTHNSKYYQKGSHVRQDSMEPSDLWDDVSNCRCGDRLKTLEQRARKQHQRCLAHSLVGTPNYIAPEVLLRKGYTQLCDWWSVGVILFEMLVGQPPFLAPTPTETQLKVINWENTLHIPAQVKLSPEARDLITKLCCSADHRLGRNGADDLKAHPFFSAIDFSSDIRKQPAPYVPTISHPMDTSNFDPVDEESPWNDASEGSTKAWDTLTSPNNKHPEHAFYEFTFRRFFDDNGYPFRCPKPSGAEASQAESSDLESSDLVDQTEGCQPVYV
In short: as §1

[7] = molecular target: T7, kinases of the scanMAX Kinase assay panel (Homo sapiens, UniProt Q9P0L2); details: MARK1; 1 uM
T7 construct: purchased DiscoverX Co. (contract measurement) scanMAX Kinase assay panel
T7 sequence (Q9P0L2 whole entry): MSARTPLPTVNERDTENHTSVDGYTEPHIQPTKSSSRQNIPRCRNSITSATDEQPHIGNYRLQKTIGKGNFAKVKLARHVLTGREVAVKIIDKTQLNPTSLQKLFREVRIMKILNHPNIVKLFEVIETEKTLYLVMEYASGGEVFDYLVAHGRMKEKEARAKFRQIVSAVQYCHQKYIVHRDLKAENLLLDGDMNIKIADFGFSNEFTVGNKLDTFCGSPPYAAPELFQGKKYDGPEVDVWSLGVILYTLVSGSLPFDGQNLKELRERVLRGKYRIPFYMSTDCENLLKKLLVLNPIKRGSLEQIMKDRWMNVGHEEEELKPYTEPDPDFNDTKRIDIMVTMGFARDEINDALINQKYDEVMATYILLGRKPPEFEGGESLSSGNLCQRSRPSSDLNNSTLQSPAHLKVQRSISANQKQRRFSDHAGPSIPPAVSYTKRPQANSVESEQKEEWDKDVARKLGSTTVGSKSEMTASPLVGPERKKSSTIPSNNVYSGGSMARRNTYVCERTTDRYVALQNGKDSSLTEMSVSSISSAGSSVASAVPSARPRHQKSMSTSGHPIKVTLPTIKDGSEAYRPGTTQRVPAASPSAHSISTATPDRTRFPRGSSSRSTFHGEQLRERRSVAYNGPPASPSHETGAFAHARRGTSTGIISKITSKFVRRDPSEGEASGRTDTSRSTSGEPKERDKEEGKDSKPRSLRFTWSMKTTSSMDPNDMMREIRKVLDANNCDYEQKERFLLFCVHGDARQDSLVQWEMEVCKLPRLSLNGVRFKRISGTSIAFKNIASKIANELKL
In short: as §1

T1 sequence (O75116 whole entry): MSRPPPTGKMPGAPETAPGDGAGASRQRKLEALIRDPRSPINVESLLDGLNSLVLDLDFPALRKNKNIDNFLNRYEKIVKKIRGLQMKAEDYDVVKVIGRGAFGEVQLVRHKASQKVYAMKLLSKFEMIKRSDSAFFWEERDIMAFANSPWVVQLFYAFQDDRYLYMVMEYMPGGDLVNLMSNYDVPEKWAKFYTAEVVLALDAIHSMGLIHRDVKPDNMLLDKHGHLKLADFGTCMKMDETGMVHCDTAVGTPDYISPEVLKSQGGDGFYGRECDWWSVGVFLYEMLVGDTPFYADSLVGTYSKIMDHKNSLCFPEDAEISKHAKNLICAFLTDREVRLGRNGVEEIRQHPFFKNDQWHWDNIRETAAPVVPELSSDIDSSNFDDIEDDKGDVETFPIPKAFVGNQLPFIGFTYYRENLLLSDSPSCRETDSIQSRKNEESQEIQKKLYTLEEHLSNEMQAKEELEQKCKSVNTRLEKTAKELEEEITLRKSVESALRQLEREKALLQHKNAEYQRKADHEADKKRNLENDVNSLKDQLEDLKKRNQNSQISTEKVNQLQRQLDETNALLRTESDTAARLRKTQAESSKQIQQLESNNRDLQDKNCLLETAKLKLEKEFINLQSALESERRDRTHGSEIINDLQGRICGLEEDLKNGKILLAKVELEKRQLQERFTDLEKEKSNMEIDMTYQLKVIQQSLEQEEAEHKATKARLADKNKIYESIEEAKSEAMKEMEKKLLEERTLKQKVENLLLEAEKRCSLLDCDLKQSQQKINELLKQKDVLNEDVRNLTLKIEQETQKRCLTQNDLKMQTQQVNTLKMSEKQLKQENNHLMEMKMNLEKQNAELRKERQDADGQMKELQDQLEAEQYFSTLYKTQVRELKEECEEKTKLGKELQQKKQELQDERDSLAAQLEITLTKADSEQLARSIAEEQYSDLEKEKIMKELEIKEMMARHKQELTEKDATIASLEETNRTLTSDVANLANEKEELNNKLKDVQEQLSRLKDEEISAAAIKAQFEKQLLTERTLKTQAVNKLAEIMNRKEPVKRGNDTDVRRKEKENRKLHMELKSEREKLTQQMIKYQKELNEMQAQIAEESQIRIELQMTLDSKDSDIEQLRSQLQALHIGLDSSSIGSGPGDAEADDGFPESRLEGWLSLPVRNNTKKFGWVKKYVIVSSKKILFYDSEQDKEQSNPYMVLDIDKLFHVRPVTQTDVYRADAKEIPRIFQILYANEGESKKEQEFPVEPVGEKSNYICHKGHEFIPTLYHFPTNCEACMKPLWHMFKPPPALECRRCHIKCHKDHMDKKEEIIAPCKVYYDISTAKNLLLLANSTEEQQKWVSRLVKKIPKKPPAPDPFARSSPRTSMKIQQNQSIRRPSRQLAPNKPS

SMILES | remaining binding at 1 µM [1] | remaining binding at 1 µM [2] | remaining binding at 1 µM [3] | remaining binding at 1 µM [4] | remaining binding at 1 µM [5] | remaining binding at 1 µM [6] | remaining binding at 1 µM [7]
CCNc1nc(Nc2ccc(C(=O)N3CCC(N4CCOCC4)CC3)cc2OC)nc2[nH]cc(C(F)(F)F)c12 [Example 104, (4-((4-(ethylamino)-5-(trifluoromethyl)-7H-pyrrolo[2,3-d]pyrimidine-2-yl)amino)-3-methoxyphenyl)(4-morpholinopiperidine-1-yl)methanone] | 100% | 41% | 81% | 84% | 1% | 87% | 100%
CNc1nc(Nc2ccc(C(=O)N3CCOCC3)cc2OC)nc2[nH]cc(C#N)c12 [Example 1, 2-((2-methoxy-4-(morpholine-4-carbonyl)phenyl)amino)-4-(methylamino)-7H-pyrrolo[2,3-d]pyrimidine-5-carbonitrile] | 56% | 61% | 82% | 83% | 13% | 61% | 91%
CC1(Nc2nc(Nc3cnn([C@H]4CCN(C5COC5)C[C@@H]4F)c3Cl)nc3[nH]cc(C#N)c23)CC1 [Example 52, 2-((5-chloro-1-((3S,4S)-3-fluoro-1-(oxetane-3-yl)piperidine-4-yl)-1H-pyrazole-4-yl)amino)((1-methylcyclopropyl)amino)-7H-pyrrolo[2,3-d]pyrimidine-5-carbonitrile] | 23% | 1.3% | 89% | 79% | 11% | 11% | 36%
